Measured values: patent US7807648B2, “G-rich polynucleotides for the treatment of Huntington's Disease” (University of Delaware, priority 2005, dated 2010)
“Also recorded” adds a separate entry of the source.

Legend:
[1] = test system: Httexon1-eGFP fusion protein aggregation in HEK293 cells; test: Aggregate formation (green fluorescent foci) in HEK293 cells transfected with p72Q, microscopy; type: cell-based, human; conditions: for inhibition of aggregate formation (number of green fluorescent foci): 150-750 nM; for reproducible inhibitory activity: cell-based assay
polyQ aggregates = conditions: cited from earlier work; for inhibition of the aggregation process: R6/2 mouse model; for toxicity: mouse, in vivo
GST-Q58-Htn = molecular target: T1, GST-Q58-Htn (Homo sapiens, UniProt P42858, INS38QQQQQQQQQQQQQQQQQQQQQQQQQQQQQQQQQQQQQ); test: Biochemical/immunoblotting filter assay of mutant Htt fragment aggregation; conditions: for inhibitory activity on aggregation (overall statement): concentration not given, 0.5-60 μM tested; for inhibitory activity on aggregation (overall statement) / inhibition of aggregate formation: 24 h; for inhibition of Htt aggregation: 1-5 μM concentrations, dose curve FIG. 4; for inhibition of aggregate formation: ODN at 20 μM or 40 μM, FIG. 5/6; for reproducible inhibitory activity: biochemical assay
T1 construct: this fragment consists of the amino terminal 171 amino acids with a tract of 58 glutamine residues fused to GST; GST (N, cleaved yes)

[2] = test system: aggregated Htt-eGFP in HEK293 cells; test: FACS analysis of aggregation in HEK293 cells transfected with p72Q; type: cell-based, human; conditions: 1 μM and 2.5 μM, 48 hours, FIG. 13
[3] = co-transfected with p72Q, 48 hours

T1 sequence (P42858 with tags, fused parts or gaps with the stated changes limits assumed): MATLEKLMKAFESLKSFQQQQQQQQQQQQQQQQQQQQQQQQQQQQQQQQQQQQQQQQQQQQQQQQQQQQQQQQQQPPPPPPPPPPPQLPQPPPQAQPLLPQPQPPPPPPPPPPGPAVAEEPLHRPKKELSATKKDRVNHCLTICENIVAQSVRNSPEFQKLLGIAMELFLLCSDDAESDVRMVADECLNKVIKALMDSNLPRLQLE

## Nc1c(/N=N/c2ccc(-c3ccc(/N=N/c4cc(S(=O)(=O)O)c5ccccc5c4N)cc3)cc2)cc(S(=O)(=O)O)c2ccccc12 [Congo Red]
[1]; Congo Red added concurrently with p72Q (0.2 μM or 1 μM), higher dosage, FIG. 8
  reduction of green fluorescent foci: significant reduction
[1]; [3]
  inhibition of aggregate formation (number of green fluorescent foci): displayed effects similar to HDG
[1]; lower dosage of Congo Red (0.2 μM or 1 μM), FIG. 8
  inhibition of aggregate formation: only partially inhibited
polyQ aggregates
  inhibition of the aggregation process: inhibit the aggregation process
  toxicity: neurotoxicity

## 5′-GGGGGTGGGGGTGGGGTGGGGGT-3′ [T40216]
GST-Q58-Htn
  inhibitory activity on aggregation (overall statement): effective inhibitors of aggregation; also recorded: capable of inhibiting GST-Q58-Htn aggregation

## HDG 20/2: HDG 20-mer wherein every other G was substituted with a T residue (DNA GTGTGTGTGTGTGTGTGTGT; listed as DNA, chemistry not given here)
[1]; co-transfected with p72Q, 48 hours, FIG. 11
  activity of HDG variants with T residues inserted: None of these molecules were found to be effective inhibitors of aggregation; also recorded: reduced significantly; also recorded: low level of activity

## HDA: 20-mer with all As (DNA AAAAAAAAAAAAAAAAAAAA; listed as DNA, chemistry not given here)
GST-Q58-Htn
  inhibition of Htt aggregation: unable to detect any Htt aggregate inhibition
  inhibition of aggregate formation: unable to inhibit aggregate formation; also recorded: no inhibition of aggregation was observed
  reproducible inhibitory activity: None
[1]
  reproducible inhibitory activity: None
[1]; [3]
  inhibition of aggregate formation (number of green fluorescent foci): little effect on the number of aggregates; also recorded: does not appear to inhibit aggregate formation
[2]
  peak of high intensity eGFP (aggregates): little detectable change; also recorded: no significant reduction in aggregates

## 5′-GGTGGTGGTGGTTGTGGTGGTGGTGG-3′ (DNA GGTGGTGGTGGTTGTGGTGGTGGTGG; listed as DNA, chemistry not given here) [GRO26B]
GST-Q58-Htn
  inhibitory activity on aggregation (overall statement): inhibit Huntington aggregation

## 5′-TTTGGTGGTGGTGGTTGTGGTGGTGGTGG-3′ [GRO29A]
GST-Q58-Htn
  inhibitory activity on aggregation (overall statement): inhibit Huntington aggregation

## Oc1c(I)cc(Cl)c2cccnc12 [Clioquinol]
polyQ aggregates
  inhibition of the aggregation process: inhibit the aggregation process
  toxicity: neurotoxicity

## HDT: 20-mer with all T's (DNA TTTTTTTTTTTTTTTTTTTT)
GST-Q58-Htn
  inhibition of Htt aggregation: unable to detect any Htt aggregate inhibition
  inhibition of aggregate formation: unable to inhibit aggregate formation; also recorded: no inhibition of aggregation was observed
  reproducible inhibitory activity: None
[1]
  reproducible inhibitory activity: None

## 5′-GGGTGGGTGGGTGGGT-3′ [T30923]
GST-Q58-Htn
  dose response of aggregation inhibition: dose response visible
  inhibitory activity on aggregation (overall statement): effective inhibitors of aggregation; also recorded: capable of inhibiting GST-Q58-Htn aggregation
[1]; [3]
  inhibition of aggregate formation (number of green fluorescent foci): could not fully substitute for HDG
